Source: ChEMBL document CHEMBL1201862, “PubChem BioAssay data set” (2004)
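Five compound concentrations were applied to cells in 96-well plates for 48 hours; endpoints were derived by simple linear interpolation of the resulting dose-response curve. GI50: concentration for 50% inhibition of growth.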 The source made the active and inactive calls. Cut-off read from the data, not from the text of the source: active = GI50 up to about 1.1 µM and inactive = higher.

Key:
Assay in all cases: NCI-60 cell line screen, 48 h
[1] = test system: SN12C
[2] = test system: CAKI-1
[3] = test system: OVCAR-5
[4] = test system: K562
[5] = test system: SK-MEL-28
[6] = test system: A498
[7] = test system: CCRF-CEM
[8] = test system: A549
[9] = test system: SNB-19
[10] = test system: OVCAR-8
[11] = test system: NCI-H522
[12] = test system: Malme-3M
[13] = test system: 786-0
[14] = test system: HL-60
[15] = test system: NCI-H226
[16] = test system: HCC 2998
[17] = test system: MDA-N
[18] = test system: IGROV-1
[19] = test system: HOP-92
[20] = test system: EKVX
[21] = test system: KM12
[22] = test system: DU-145
[23] = test system: T47D
[24] = test system: ACHN
[25] = test system: SR
[26] = test system: HOP-62
[27] = test system: TK-10
[28] = test system: HT-29
[29] = test system: U-251
[30] = test system: UACC-257
[31] = test system: SK-MEL-2
[32] = test system: UACC-62
[33] = test system: PC-3
[34] = test system: RXF 393
[35] = test system: NCI/ADR-RES
[36] = test system: SK-OV-3
[37] = test system: UO-31
[38] = test system: Hs-578T
[39] = test system: SNB-75
[40] = test system: MDA-MB-231
[41] = test system: HCT-15
[42] = test system: NCI-H460
[43] = test system: HCT-116
[44] = test system: MOLT-4
[45] = test system: NCI-H23
[46] = test system: RPMI-8226
[47] = test system: COLO 205
[48] = test system: SF-268
[49] = test system: OVCAR-4
[50] = test system: MDA-MB-435
[51] = test system: MCF7
[52] = test system: SK-MEL-5
[53] = test system: M14
[54] = test system: SF-295
[55] = test system: LOX IMVI
[56] = test system: OVCAR-3
[57] = test system: SW-620
[58] = test system: SF-539

`C[C@@H](c1ccccc1)N1C[C@@H](c2ccc3c(c2)OCO3)[C@@H]2C(=O)CCC[C@@H]21` was tested, and the GI50 [1] was 59.8 µM (inactive), the GI50 [2] was > 100 µM (inactive) and the GI50 [3] was > 100 µM (inactive). For the same compound, the GI50 [4] was 64.1 µM (inactive), the GI50 [5] was 28.6 µM (inactive) and the GI50 [6] was 28.6 µM (inactive). The GI50 [7] was 61 µM (inactive), the GI50 [8] was 57.9 µM (inactive) and the GI50 [9] was 75 µM (inactive). The GI50 [10] was > 100 µM (inactive), the GI50 [11] was 42.5 µM (inactive) and the GI50 [12] was 31.3 µM (inactive). The GI50 [13] was 75.2 µM (inactive), the GI50 [14] was 34.1 µM (inactive) and the GI50 [15] was > 100 µM (inactive). For the same compound, the GI50 [16] was 30.1 µM (inactive), the GI50 [17] was > 100 µM (inactive) and the GI50 [18] was 41.1 µM (inactive). For the same compound, the GI50 [19] was 47.1 µM (inactive), the GI50 [20] was 69.3 µM (inactive) and the GI50 [21] was 97.9 µM (inactive). For the same compound, the GI50 [22] was > 100 µM (inactive), the GI50 [23] was 37.3 µM (inactive) and the GI50 [24] was 35.2 µM (inactive). The GI50 [25] was 42.8 µM (inactive), the GI50 [26] was > 100 µM (inactive) and the GI50 [27] was > 100 µM (inactive). For the same compound, the GI50 [28] was 98.9 µM (inactive), the GI50 [29] was 66.5 µM (inactive) and the GI50 [30] was 50.2 µM (inactive). For the same compound, the GI50 [31] was 41 µM (inactive), the GI50 [32] was 25.5 µM (inactive) and the GI50 [33] was 59.2 µM (inactive). For the same compound, the GI50 [34] was 88.5 µM (inactive), the GI50 [35] was 81.7 µM (inactive) and the GI50 [36] was > 100 µM (inactive). For the same compound, the GI50 [37] was 83 µM (inactive), the GI50 [38] was 72.9 µM (inactive) and the GI50 [39] was 36.4 µM (inactive). For the same compound, the GI50 [40] was 63.8 µM (inactive), the GI50 [41] was 61.2 µM and the GI50 [42] was 54.5 µM (inactive). The GI50 [43] was 43.8 µM (inactive), the GI50 [44] was 30.3 µM (inactive) and the GI50 [45] was 61.8 µM (inactive). The GI50 [46] was 38.1 µM (inactive), the GI50 [47] was 20.6 µM (inactive) and the GI50 [48] was 96.8 µM (inactive). For the same compound, the GI50 [49] was 43.8 µM (inactive), the GI50 [50] was 67.8 µM (inactive) and the GI50 [51] was 27.8 µM (inactive). For the same compound, the GI50 [52] was 36.8 µM (inactive), the GI50 [53] was 19.5 µM (inactive) and the GI50 [54] was 79.3 µM (inactive). For the same compound, the GI50 [55] was 69 µM (inactive).
In the case of `CSCCC(NCc1c(O)ccc2c(-c3ccccc3)cc(=O)oc12)C(=O)O` (configuration not stated), the GI50 [1] is reported as > 100 µM (inactive), the GI50 [2] is reported as > 100 µM (inactive) and the GI50 [3] is reported as > 100 µM (inactive). For the same compound, the GI50 [4] was > 100 µM (inactive), the GI50 [5] was > 100 µM (inactive) and the GI50 [7] was > 100 µM (inactive). The GI50 [8] was > 100 µM (inactive), the GI50 [9] was > 100 µM (inactive) and the GI50 [10] was > 100 µM (inactive). The GI50 [11] was > 100 µM (inactive), the GI50 [12] was > 100 µM (inactive) and the GI50 [13] was > 100 µM (inactive). For the same compound, the GI50 [14] was > 100 µM (inactive), the GI50 [15] was > 100 µM (inactive) and the GI50 [16] was > 100 µM (inactive). The GI50 [17] was > 100 µM (inactive), the GI50 [18] was > 100 µM (inactive) and the GI50 [19] was > 100 µM (inactive). The GI50 [20] was > 100 µM (inactive), the GI50 [21] was > 100 µM (inactive) and the GI50 [22] was > 100 µM (inactive). For the same compound, the GI50 [23] was > 100 µM (inactive), the GI50 [24] was > 100 µM (inactive) and the GI50 [25] was > 100 µM (inactive). For the same compound, the GI50 [26] was > 100 µM (inactive), the GI50 [27] was > 100 µM (inactive) and the GI50 [28] was > 100 µM (inactive). The GI50 [56] was > 100 µM (inactive), the GI50 [29] was > 100 µM (inactive) and the GI50 [57] was > 100 µM (inactive). For the same compound, the GI50 [30] was > 100 µM (inactive), the GI50 [31] was > 100 µM (inactive) and the GI50 [32] was > 100 µM (inactive). For the same compound, the GI50 [33] was > 100 µM (inactive), the GI50 [34] was > 100 µM (inactive) and the GI50 [35] was > 100 µM (inactive). The GI50 [36] was > 100 µM (inactive), the GI50 [37] was > 100 µM (inactive) and the GI50 [38] was > 100 µM (inactive). For the same compound, the GI50 [39] was > 100 µM (inactive), the GI50 [40] was > 100 µM (inactive) and the GI50 [41] was greater than 100 µM. The GI50 [42] was > 100 µM (inactive), the GI50 [43] was > 100 µM (inactive) and the GI50 [44] was > 100 µM (inactive). The GI50 [45] was > 100 µM (inactive), the GI50 [46] was > 100 µM (inactive) and the GI50 [47] was > 100 µM (inactive). For the same compound, the GI50 [48] was > 100 µM (inactive), the GI50 [49] was > 100 µM (inactive) and the GI50 [50] was > 100 µM (inactive). The GI50 [51] was > 100 µM (inactive), the GI50 [52] was > 100 µM (inactive) and the GI50 [58] was > 100 µM (inactive). For the same compound, the GI50 [53] was > 100 µM (inactive), the GI50 [54] was > 100 µM (inactive) and the GI50 [55] was > 100 µM (inactive).
In the case of `O=C(O)CNC(=O)c1ccc(-c2ccccc2)cc1`, the GI50 [1] is reported as > 100 µM (inactive), the GI50 [2] is reported as > 100 µM (inactive) and the GI50 [3] is reported as > 100 µM (inactive). The GI50 [4] was > 100 µM (inactive), the GI50 [5] was > 100 µM (inactive) and the GI50 [6] was > 100 µM (inactive). For the same compound, the GI50 [7] was > 100 µM (inactive), the GI50 [8] was > 100 µM (inactive) and the GI50 [9] was > 100 µM (inactive). The GI50 [10] was > 100 µM (inactive), the GI50 [11] was > 100 µM (inactive) and the GI50 [12] was > 100 µM (inactive). For the same compound, the GI50 [13] was > 100 µM (inactive), the GI50 [14] was > 100 µM (inactive) and the GI50 [15] was > 100 µM (inactive). For the same compound, the GI50 [16] was > 100 µM (inactive), the GI50 [17] was > 100 µM (inactive) and the GI50 [18] was > 100 µM (inactive). For the same compound, the GI50 [19] was 61.1 µM (inactive), the GI50 [20] was > 100 µM (inactive) and the GI50 [21] was > 100 µM (inactive). The GI50 [22] was > 100 µM (inactive), the GI50 [23] was > 100 µM (inactive) and the GI50 [24] was > 100 µM (inactive). For the same compound, the GI50 [25] was > 100 µM (inactive), the GI50 [26] was > 100 µM (inactive) and the GI50 [27] was > 100 µM (inactive). For the same compound, the GI50 [56] was > 100 µM (inactive), the GI50 [29] was > 100 µM (inactive) and the GI50 [57] was > 100 µM (inactive). The GI50 [30] was > 100 µM (inactive), the GI50 [31] was > 100 µM (inactive) and the GI50 [32] was > 100 µM (inactive). The GI50 [33] was > 100 µM (inactive), the GI50 [34] was > 100 µM (inactive) and the GI50 [35] was > 100 µM (inactive). For the same compound, the GI50 [36] was > 100 µM (inactive), the GI50 [37] was > 100 µM (inactive) and the GI50 [38] was 75.7 µM (inactive). The GI50 [40] was > 100 µM (inactive), the GI50 [41] was greater than 100 µM and the GI50 [42] was > 100 µM (inactive). For the same compound, the GI50 [43] was > 100 µM (inactive), the GI50 [44] was > 100 µM (inactive) and the GI50 [45] was > 100 µM (inactive). For the same compound, the GI50 [46] was > 100 µM (inactive), the GI50 [47] was > 100 µM (inactive) and the GI50 [48] was > 100 µM (inactive). The GI50 [50] was > 100 µM (inactive), the GI50 [51] was > 100 µM (inactive) and the GI50 [52] was > 100 µM (inactive). The GI50 [58] was > 100 µM (inactive), the GI50 [53] was > 100 µM (inactive) and the GI50 [54] was > 100 µM (inactive). The GI50 [55] was > 100 µM (inactive).
